Target: T1, SIRT7 protein (Homo sapiens, UniProt Q9NRC8)
T1 construct: purchased SignalChem S41-30H
T1 sequence (Q9NRC8 1-400): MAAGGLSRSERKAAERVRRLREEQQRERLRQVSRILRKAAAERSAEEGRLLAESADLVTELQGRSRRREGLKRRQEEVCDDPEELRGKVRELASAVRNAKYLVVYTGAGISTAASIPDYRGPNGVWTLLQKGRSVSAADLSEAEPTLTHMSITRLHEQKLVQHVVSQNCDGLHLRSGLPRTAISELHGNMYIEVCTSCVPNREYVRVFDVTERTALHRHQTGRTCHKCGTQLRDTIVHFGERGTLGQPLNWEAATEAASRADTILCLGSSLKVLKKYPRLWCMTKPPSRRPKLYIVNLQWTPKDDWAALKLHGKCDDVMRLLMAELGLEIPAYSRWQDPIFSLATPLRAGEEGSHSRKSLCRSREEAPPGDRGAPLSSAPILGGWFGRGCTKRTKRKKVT
Experiment: SIRT Glo assay, inhibitory activity against Sirt7
Type: biochemical
Conditions: 10 μM compound
Protocol: Promega's Cat. No. 6450 SIRT Glo assay kit was used, and as the target SIRT7 protein, No. S41-30H protein of SignalChem's Cat. was used. Prepare the compound by diluting it in SIRT Glo buffer in advance to a concentration twice as thick as the final concentration. For the positive control group of white 384 well plate (Greiner Bioone, white, small volume, Cat. No. 874075), and for compound group, dilute sirt7 protein in SIRT Glo buffer and dispense by 5 μL to contain 20 ng per well. In the background control group, 10 μL of SIRT Glo buffer is dispensed.
After adding 5 μL of SIRT Glo buffer to the positive control group, and 5 μL of the diluted compound to the compound group, react for 30 minutes. After making the substrate provided in the SIRT Glo assay, adding 10 μL each, and reacting for 1 hour, the luciferase activity is measured with a microplate reader (Molecular Device, spectramax i3).
Subtract the luciferase level of the background control group in all wells. The % inhibition of the compound was used to obtain the compound's rate of inhibitory activity against sirt7 in the following:
% inhibition=100−(compound group/positive control group)×100.

| SMILES | inhibition at 10 µM [%] |
| --- | --- |
| CC(C)(C)OC(=O)N1CCN(Cc2ccc(C(=O)Nc3nc4ccccc4[nH]3)cc2)CC1 [Compound 1-1, Tert-Butyl 4-(4-((1H-benzo[d]imidazol-2-yl)carbamoyl)benzyl)piperazine-1-carboxylate] | 12 |
| Cn1c(NC(=O)c2ccc(CN3CCN(C(=O)OC(C)(C)C)CC3)cc2)nc2ccccc21 [Compound 1-2, Tert-Butyl 4-(4-((1-methyl-1H-benzo[d]imidazol-2-yl)carbamoyl)benzyl)piperazine-1-carboxylate] | 8 |
| O=C(Nc1nc2ccccc2[nH]1)c1ccc(CN2CCNCC2)cc1 [Compound 1-3, N-(1H-benzo[d]imidazol-2-yl)-4-(piperazin-1-ylmethyl)benzamide] | 10 |
| Cc1ccc(Oc2ccc(C(=O)Nc3nc4ccccc4[nH]3)cc2)nn1 [Compound 1-4, N-(1H-benzo[d]imidazol-2-yl)-4-((6-methylpyridazin-3-yl)oxy)benzamide] | 90 |
| Cc1ccc(Oc2cccc(C(=O)Nc3nc4ccccc4[nH]3)c2)nn1 [Compound 1-5, N-(1H-benzo[d]imidazol-2-yl)-3-((6-methylpyridazin-3-yl)oxy)benzamide] | 65 |
| Cc1ccc(Oc2ccc(C(=O)Nc3nc4cc(F)ccc4[nH]3)cc2)nn1 [Compound 1-6, N-(5-fluoro-1H-benzo[d]imidazol-2-yl)-4-((6-methylpyridazin-3-yl)oxy)benzamide] | 92 |
| Cc1ccc(Oc2ccc(C(=O)Nc3nc4cc(F)c(F)cc4[nH]3)cc2)nn1 [Compound 1-7, N-(5,6-difluoro-1H-benzo[d]imidazol-2-yl)-4-((6-methylpyridazin-3-yl)oxy)benzamide] | 5 |
| CCc1cnc(Oc2cccc(C(=O)Nc3nc4ccccc4[nH]3)c2)nc1 [Compound 1-8, N-(1H-benzo[d]imidazol-2-yl)-3-((5-ethylpyrimidin-2-yl)oxy)benzamide] | 44 |
| CCc1cnc(Oc2ccc(C(=O)Nc3nc4ccccc4[nH]3)cc2)nc1 [Compound 1-9, N-(1H-benzo[d]imidazol-2-yl)-4-((5-ethylpyrimidin-2-yl)oxy)benzamide] | 63 |
| O=C(Nc1nc2ccccc2[nH]1)c1ccc(Oc2ncc(F)cn2)cc1 [Compound 1-10, N-(1H-benzo[d]imidazol-2-yl)-4-((5-fluoropyrimidin-2-yl)oxy)benzamide] | 56 |
| O=C(Nc1nc2ccccc2[nH]1)c1cccc(Oc2ncc(F)cn2)c1 [Compound 1-11, N-(1H-benzo[d]imidazol-2-yl)-3-((5-fluoropyrimidin-2-yl)oxy)benzamide] | 21 |
| O=C(Nc1nc2ccccc2[nH]1)c1ccc(OCc2ccccc2)cc1 [Compound 1-12, N-(1H-benzo[d]imidazol-2-yl)-4-(benzyloxy)benzamide] | 99 |
| O=C(Nc1nc2ccccc2[nH]1)c1ccc(OCc2ccc(C(F)(F)F)cc2)cc1 [Compound 1-13, N-(1H-benzo[d]imidazol-2-yl)-4-((4-(trifluoromethyl)benzyl)oxy)benzamide] | 21 |
| O=C(Nc1nc2ccccc2n1Cc1ccc(C(F)(F)F)cc1)c1ccc(OCc2ccc(C(F)(F)F)cc2)cc1 [Compound 1-14, N-(1-(4-(trifluoromethyl)benzyl)-1H-benzo[d]imidazol-2-yl)-4-((4-(trifluoromethyl)benzyl)oxy)benzamide] | 15 |
| Cc1ccc(Oc2ccc(C(=O)Nc3nc4ccccc4s3)cc2)nn1 [Compound 1-15, N-(benzo[d]thiazol-2-yl)-4-((6-methylpyridazin-3-yl)oxy)benzamide] | 52 |

Next, values leading:

| inhibition at 10 µM [%] | SMILES |
| --- | --- |
| 87 | Cc1ccc(Oc2ccc(C(=O)Nc3nc4cccnc4s3)cc2)nn1 [Compound 1-16, 4-((6-methylpyridazin-3-yl)oxy)-N-(thiazolo[5,4-b]pyridin-2-yl)benzamide] |
| 88 | Cc1ccc(Oc2cccc(C(=O)Nc3nc4ccccc4s3)c2)nn1 [Compound 1-17, N-(benzo[d]thiazol-2-yl)-3-((6-methylpyridazin-3-yl)oxy)benzamide] |
| 5 | Cc1ccc(Oc2ccc(C(=O)Nc3nc4ccc(Br)cc4s3)cc2)nn1 [Compound 1-18, N-(6-bromobenzo[d]thiazol-2-yl)-4-((6-methylpyridazin-3-yl)oxy)benzamide] |
| 13 | CCc1cnc(Oc2ccc(C(=O)Nc3nc4ccccc4s3)cc2)nc1 [Compound 1-19, N-(benzo[d]thiazol-2-yl)-4-((5-ethylpyrimidin-2-yl)oxy)benzamide] |
| 63 | CCc1cnc(Oc2cccc(C(=O)Nc3nc4ccccc4s3)c2)nc1 [Compound 1-20, N-(benzo[d]thiazol-2-yl)-3-((5-ethylpyrimidin-2-yl)oxy)benzamide] |
| 41 | O=C(Nc1nc2ccccc2s1)c1ccc(Oc2ncc(F)cn2)cc1 [Compound 1-21, N-(benzo[d]thiazol-2-yl)-4-((5-fluoropyrimidin-2-yl)oxy)benzamide] |
| 49 | CC(C)(C)OC(=O)N1CCN(c2nc3ccccc3s2)CC1 [Compound 1-22, tert-butyl 4-(benzo[d]thiazol-2-yl)piperazine-1-carboxylate] |
| 78 | c1ccc2sc(N3CCC4(CC3)OCCO4)nc2c1 [Compound 1-23, 8-(benzo[d]thiazol-2-yl)-1,4-dioxa-8-azaspiro[4.5]decane] |
| 10 | CC(C)(C)OC(=O)N1CCC2(CC1)CN(c1nc3ccccc3s1)C2 [Compound 1-24, tert-butyl 2-(benzo[d]thiazol-2-yl)-2,7-diazaspiro[3.5]nonane-7-carboxylate] |
| 72 | CC(C)(C)OC(=O)N1C[C@@H]2C[C@H]1CN2Cc1ccc(C(=O)Nc2nc3ccccc3s2)cc1 [Compound 1-25, Tert-Butyl (1S,4S)-5-(4-(benzo[d]thiazol-2-ylcarbamoyl)benzyl)-2,5-diazabicyclo[2.2.1]heptane-2-carboxylate] |
| 40 | CC(C)(C)OC(=O)N1CCN(Cc2ccc(C(=O)Nc3nc4ccccc4s3)cc2)CC1 [Compound 1-26, Tert-Butyl 4-(4-(benzo[d]thiazol-2-ylcarbamoyl)benzyl)piperazine-1-carboxylate] |
| 27 | CC(C)(C)OC(=O)N1CC2(CCN(Cc3ccc(C(=O)Nc4nc5ccccc5s4)cc3)CC2)C1 [Compound 1-27, tert-butyl 7-(4-(benzo[d]thiazol-2-ylcarbamoyl)benzyl)-2,7-diazaspiro[3.5]nonane-2-carboxylate] |
| 62 | CC(C)(C)OC(=O)N1CCC2(CCN(Cc3ccc(C(=O)Nc4nc5ccccc5s4)cc3)CC2)CC1 [Compound 1-28, tert-butyl 9-(4-(benzo[d]thiazol-2-ylcarbamoyl)benzyl)-3,9-diazaspiro[5.5]undecane-3-carboxylate] |
| 83 | O=C(Nc1nc2ccccc2s1)c1ccc(CN2CCC3(CC2)OCCO3)cc1 [Compound 1-29, 4-((1,4-dioxa-8-azaspiro[4.5]decan-8-yl)methyl)-N-(benzo[d]thiazol-2-yl)benzamide] |
| 19 | c1ccc(CN2CCC3(CC2)CN(c2nc4ccccc4s2)C3)cc1 [Compound 1-30, 2-(7-benzyl-2,7-diazaspiro[3.5]nonan-2-yl)benzo[d]thiazole] |
| 15 | O=C(Nc1nc2ccccc2s1)c1ccc(CN2CCNCC2)cc1 [Compound 1-31, N-(benzo[d]thiazol-2-yl)-4-(piperazin-1-ylmethyl)benzamide] |
| 34 | CCS(=O)(=O)N1CCN(Cc2ccc(C(=O)Nc3nc4ccccc4s3)cc2)CC1 [Compound 1-32, N-(benzo[d]thiazol-2-yl)-4-((4-(ethylsulfonyl)piperazin-1-yl)methyl)benzamide] |
| 33 | CN(C)S(=O)(=O)N1CCN(Cc2ccc(C(=O)Nc3nc4ccccc4s3)cc2)CC1 [Compound 1-33, N-(benzo[d]thiazol-2-yl)-4-((4-(N,N-dimethylsulfamoyl)piperazin-1-yl)methyl)benzamide] |
| 29 | O=C(Nc1nc2ccccc2s1)c1ccc(CN2CCN(S(=O)(=O)C3CC3)CC2)cc1 [Compound 1-34, N-(benzo[d]thiazol-2-yl)-4-((4-(cyclopropylsulfonyl)piperazin-1-yl)methyl)benzamide] |
| 20 | O=C(Nc1nc2ccccc2s1)c1ccc(CN2CCN(S(=O)(=O)c3ccccc3)CC2)cc1 [Compound 1-35, N-(benzo[d]thiazol-2-yl)-4-((4-(phenylulfonyl)piperazin-1-yl)methyl)benzamide] |
| 15 | O=C(Nc1nc2ccccc2s1)c1ccc(CN2CCN(S(=O)(=O)c3ccc(C(F)(F)F)cc3)CC2)cc1 [Compound 1-36, N-(benzo[d]thiazol-2-yl)-4-((4-((4-(trifluoromethyl)phenyl)sulfonyl)piperazin-1-yl)methyl)benzamide] |

Source: patent publication US20240116897A1, “BENZOTHIAZOLE AND BENZIMIDAZOLE DERIVATIVES, PHARMACEUTICALLY ACCEPTABLE SALT THEREOF, PREPARATION METHOD THEREFOR, AND PHARMACEUTICAL COMPOSITION COMPRISING SAME AS ACTIVE INGREDIENT” (KOREA RESEARCH INSTITUTE OF CHEMICAL TECHNOLOGY, priority 2021, published 2024)
